These results are taken from patent US9546139B2, “Pyridine carboxylic acid based compound used as a P2X1 and P2X3 receptor antagonist, a production method for the same and a composition comprising the same” (GWANGJU INSTITUTE OF SCIENCE AND TECHNOLOGY, priority 2010, dated 2017).

Structures are written as SMILES.

One assay addresses T1, mouse P2X1 receptor (Mus musculus, UniProt P51576).
T1 construct: EST clones containing full-length cDNAs of mouse P2X1 (clone ID: 4189541) and human P2X7 receptor (clone ID: 5286944); host or cells: Xenopus oocytes (cRNA injected)
T1 sequence (P51576 1-399): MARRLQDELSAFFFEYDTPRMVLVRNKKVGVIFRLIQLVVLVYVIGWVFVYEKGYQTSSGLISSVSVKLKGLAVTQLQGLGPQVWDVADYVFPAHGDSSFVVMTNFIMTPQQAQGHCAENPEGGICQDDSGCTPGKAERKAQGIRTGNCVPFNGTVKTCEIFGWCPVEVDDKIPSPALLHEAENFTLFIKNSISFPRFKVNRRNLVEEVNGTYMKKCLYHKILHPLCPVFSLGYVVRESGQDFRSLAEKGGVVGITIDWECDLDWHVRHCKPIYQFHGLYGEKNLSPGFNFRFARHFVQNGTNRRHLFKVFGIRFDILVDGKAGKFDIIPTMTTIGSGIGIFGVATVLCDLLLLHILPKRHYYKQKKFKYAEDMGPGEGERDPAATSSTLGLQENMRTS
Briefly: Two-electrode voltage clamp, ATP-induced ion current in Xenopus oocytes expressing mouse P2X1. The assay is classed as cell-based. The settings on record: Table 2, 10 μM compound, ion current induced by 2 μM ATP, mean ± SEM, n = 4; for inhibition at 10 µM: read-out: % inhibition mP2X1. The procedure:
1-1. Antagonistic Activity at Recombinant Mouse P2X1 and Human P2X3 Receptors
(§1) Xenopus oocytes were harvested and prepared with method as previously described in publications. Defolliculated oocytes were injected cytosolically with mouse P2X1 and human P2X3 receptor cRNA ([…], 1 μg/mL), respectively, incubated for 24 hrs at 18° C. in Barth's solution and kept for up to 12 days at 4° C. until used in electrophysiological experiments. ATP-activated membrane currents (Vh=−70 mV) were recorded from cRNA-injected oocytes using the twin-electrode voltage-clamp technique (Axoclamp 2B amplifier). Voltage recording (1-2 MΩ tip resistance) and current-recording microelectrodes (5 MΩ tip resistance) were filled with 3.0 M KCl. Oocytes were held in an electrophysiological chamber and superfused with Ringer's solution (5 mL/min, at 18° C.) containing (mM) NaCl, 110; KCl, 2.5; HEPES, 5; BaCl2, 1.8, adjusted to pH 7.5. ATP was superfused over the oocytes for 60-120s then washed out for a period of 20 min. For inhibition curves, data were normalized to the current evoked by ATP, at pH 7.5. Test substances were added for 20 min prior to ATP exposure; all peptides were tested for reversibility of their effects. The concentration required to inhibit the ATP response by 50% (IC50) was taken from Hill plots constructed using the formula: log(I/Imax−1), where I is the current evoked by ATP in the presence of an antagonist. Data are presented as mean±SEM (n=4) for the data from different batches of oocytes.
Background: Two-electrode voltage clamp is typically applied to oocytes expressing channels or transporters.

In the next assay the target is T2, human P2X3 receptor (Homo sapiens, UniProt P56373).
T2 construct: expressed in transfected cells; host or cells: Xenopus oocytes (cRNA injected); cDNA from the Max-Planck Institute laboratory (Dr. W. Stuhmer and Dr. F. Soto)
T2 sequence (P56373 1-397): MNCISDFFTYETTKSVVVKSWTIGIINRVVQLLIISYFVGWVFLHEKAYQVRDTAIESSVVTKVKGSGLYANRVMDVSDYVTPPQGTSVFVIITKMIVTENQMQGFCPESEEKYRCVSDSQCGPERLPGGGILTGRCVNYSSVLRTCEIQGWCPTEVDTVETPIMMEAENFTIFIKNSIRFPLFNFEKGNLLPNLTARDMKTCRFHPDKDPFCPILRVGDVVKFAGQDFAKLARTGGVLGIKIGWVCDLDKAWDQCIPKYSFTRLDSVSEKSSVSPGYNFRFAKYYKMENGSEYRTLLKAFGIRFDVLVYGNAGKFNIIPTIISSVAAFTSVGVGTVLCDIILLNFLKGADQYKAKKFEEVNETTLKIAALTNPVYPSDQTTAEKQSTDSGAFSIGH
Kind of assay: Two-electrode voltage clamp, ATP-induced ion current in Xenopus oocytes expressing human P2X3. Format: cell-based. The settings on record: Table 2, 10 μM compound, ion current induced by 2 μM ATP, mean ± SEM, n = 4; for inhibition at 10 µM: read-out: % inhibition hP2X3. As to the method:
Antagonistic Activity at Recombinant Mouse P2X1 and Human P2X3 Receptors
as §1

For the next assay, the target named is T3, human P2X7 receptor (Homo sapiens, UniProt Q99572).
T3 construct: EST clones containing full-length cDNAs of mouse P2X1 (clone ID: 4189541) and human P2X7 receptor (clone ID: 5286944); host or cells: HEK293
T3 sequence (Q99572 1-595): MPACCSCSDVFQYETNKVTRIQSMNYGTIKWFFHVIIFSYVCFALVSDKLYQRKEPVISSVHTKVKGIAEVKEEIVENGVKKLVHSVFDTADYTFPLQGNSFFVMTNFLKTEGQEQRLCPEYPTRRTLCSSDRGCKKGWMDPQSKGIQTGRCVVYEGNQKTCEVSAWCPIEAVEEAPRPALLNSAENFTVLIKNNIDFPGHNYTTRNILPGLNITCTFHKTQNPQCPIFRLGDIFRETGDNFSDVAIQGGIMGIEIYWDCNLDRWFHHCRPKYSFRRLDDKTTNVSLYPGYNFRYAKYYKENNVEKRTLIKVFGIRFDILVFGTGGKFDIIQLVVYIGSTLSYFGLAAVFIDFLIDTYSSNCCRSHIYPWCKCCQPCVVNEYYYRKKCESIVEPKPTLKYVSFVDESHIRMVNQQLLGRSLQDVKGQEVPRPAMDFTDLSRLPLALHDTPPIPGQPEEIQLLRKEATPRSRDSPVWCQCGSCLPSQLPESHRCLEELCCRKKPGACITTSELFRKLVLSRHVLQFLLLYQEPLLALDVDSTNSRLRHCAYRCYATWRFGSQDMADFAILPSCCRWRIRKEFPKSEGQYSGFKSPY
Briefly: Ethidium+ accumulation assay in human P2X7-expressing HEK293 cells. The assay is classed as cell-based. The conditions noted are these: 10 μM compound, ethidium+ accumulation induced by 6 μM BzATP, n = 3. As to the method: 1-2. Ethidium^+ Accumulation Assay at Human P2X7 Receptors
Human P2X7-expressing HEK293 cells were grown as monolayer culture at 37° C. in a humidified atmosphere of 5% CO2, DMEM supplemented with 10% fetal bovine serum. Cells were harvested with treatment of Trypsin/EDTA solution, collected by centrifugation (200 g for 5 min).
The cells were resuspended at 2.5×10^6 cells/mL in assay buffers, consisting of (in mM) HEPES 10, KCl 140, glucose 5, EDTA 1 (pH 7.4), and then ethidium bromide (100 μM) was added. Cell suspensions were added to 96 well plates containing the P2X7 receptor agonist, ATP or BzATP, at 2×10^5 cells/wells. Plates were incubated at 37° C. for 120 min and cellular accumulation of ethidium^+ was determined by measuring fluorescence with Bio-Tek instrument FL600 fluorescent plate reader (excitation wavelength of 530 nm and emission wavelength of 590 nm). When the effects of antagonists, such as PPADS, KN62, and test peptides were studied, antagonists were treated together with agonist without pre-incubation.

For the next assay, the system named is P2 receptor. The conditions noted are these: conventional antagonist, stated shortcoming; cited from earlier work.

On to `Cc1nc(Cc2cccc3ccccc23)c(C(=O)O)c(C(=O)O)c1O` [Compound 50, 5-Hydroxy-6-methyl-2-(naphthalene-1-ylmethyl)pyridine-3,4-dicarboxylic acid], for which the inhibition (usually the drop in the measured response relative to a control, in per cent) at 10 µM was found to be 48.3 ± 4.1% on mouse P2X1 receptor and 67.9 ± 5.2% at human P2X3 receptor. Further, on human P2X7 receptor, the “% inhibition hP2X7” value is “inactive”.

In the case of `Cc1nc(CC(c2ccccc2)c2ccccc2)c(C(=O)O)c(C(=O)O)c1O` [Compound 51, 2-(2,2,-diphenylethyl)5-hydroxy-6-methylpyridine-3,4-dicarboxylic acid], the “% inhibition mP2X1” value at mouse P2X1 receptor is reported as 53.9 ± 5.1%. The “% inhibition hP2X3” value on human P2X3 receptor is given as 62.9 ± 7.1%. For the same compound, the “% inhibition hP2X7” value at human P2X7 receptor is “inactive”.

On to `COc1ccc(CCc2nc(C)c(O)c(C=O)c2CCC(=O)O)cc1` [Compound 61, 3-(4-formyl-5-hydroxy-2-(4-methoxyphenethyl)-6-methylpyridin-3-yl)propanoic acid], for which the inhibition at 10 µM at mouse P2X1 receptor worked out at 50.9 ± 6.1%; at human P2X3 receptor, 70.5 ± 4.7%. Besides, the “% inhibition hP2X7” value on human P2X7 receptor is “inactive”.

Turning to `COc1ccc(CCc2nc(C)c(O)c(C=O)c2/C=C/C(=O)O)cc1` [Compound 64, (E)-3-(4-formyl-5-hydroxy-2-(4-methoxyphenethyl)-6-methylpyridin-3-yl)acrylic acid], the inhibition at 10 µM stood at 51.4 ± 4.8% on mouse P2X1 receptor and 69.4 ± 7.5% at human P2X3 receptor. At human P2X7 receptor, the “% inhibition hP2X7” value is “inactive”.

On to `COc1ccc(CCc2nc(C)c(O)c(C=O)c2C(=O)O)cc1` [Compound 67, 4-formyl-5-hydroxy-2-(4-methoxyphenethyl)-6-methylnicotinic acid], for which the inhibition at 10 µM was determined as 52.8 ± 5.6% at mouse P2X1 receptor and 72.6 ± 4.3% at human P2X3 receptor. In addition, the “% inhibition hP2X7” value on human P2X7 receptor is “inactive”.

As to `Cc1nc(N=Nc2ccc(S(=O)(=O)O)cc2S(=O)(=O)O)c(COP(=O)(O)O)c(C=O)c1O` [PPADS, pyridoxalphosphate-6-azophenyl-2′,4′-disulphonic acid], the “reversibility of blocking activity” value in the assay with P2 receptor is listed as “irreversible blocking activity”.
